PMC8201645 (Journal of medicinal chemistry, 2020)
Like-named read-outs stand apart in the source and are kept apart here.

Assays:
[1] = molecular target: T1, human A3AR (Homo sapiens, UniProt P0DMS8); settings: at 10 μM; previously reported; cited from earlier work
T1 sequence (P0DMS8 1-318): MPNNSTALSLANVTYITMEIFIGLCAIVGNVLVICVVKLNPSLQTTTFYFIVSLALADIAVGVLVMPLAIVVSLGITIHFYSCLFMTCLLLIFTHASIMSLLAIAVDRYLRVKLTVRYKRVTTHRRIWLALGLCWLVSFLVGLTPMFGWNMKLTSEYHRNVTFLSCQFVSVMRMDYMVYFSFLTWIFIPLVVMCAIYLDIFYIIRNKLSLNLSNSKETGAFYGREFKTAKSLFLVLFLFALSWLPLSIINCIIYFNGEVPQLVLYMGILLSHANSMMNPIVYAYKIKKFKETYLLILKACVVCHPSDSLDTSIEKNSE

[2] = system: hBM-MSCs; settings: 10 μM cotreated with IDX medium for 5 d
[3] = molecular target: T2, PPARδ-LBD (Homo sapiens, UniProt Q03181)
T2 sequence (Q03181 211-439 limits assumed): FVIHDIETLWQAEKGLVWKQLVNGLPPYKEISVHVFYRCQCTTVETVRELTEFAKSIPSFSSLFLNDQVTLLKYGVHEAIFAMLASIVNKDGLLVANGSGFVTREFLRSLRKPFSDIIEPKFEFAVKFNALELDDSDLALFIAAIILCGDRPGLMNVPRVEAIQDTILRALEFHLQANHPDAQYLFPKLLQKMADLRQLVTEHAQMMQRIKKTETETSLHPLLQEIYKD

[4] = molecular target: T2, PPARδ-LBD; remark: listed apart in the source
[5] = molecular target: T3, PPARγ-LBD (Homo sapiens, UniProt P37231); settings: fluorescein-TRAP220/DRIP peptide
T3 sequence (P37231 238-503 limits assumed): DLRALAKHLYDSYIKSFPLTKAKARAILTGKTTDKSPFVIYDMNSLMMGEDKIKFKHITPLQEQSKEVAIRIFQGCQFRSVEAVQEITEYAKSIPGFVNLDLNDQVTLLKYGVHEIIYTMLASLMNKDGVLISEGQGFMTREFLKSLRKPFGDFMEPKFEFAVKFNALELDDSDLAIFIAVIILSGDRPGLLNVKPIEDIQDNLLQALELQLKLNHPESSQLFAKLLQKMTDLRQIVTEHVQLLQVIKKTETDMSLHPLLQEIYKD

[6] = molecular target: T1, human A3AR; settings: at 10 μM
[7] = molecular target: T4, PPARγ (Homo sapiens, UniProt P37231); settings: TR-FRET-based assay
T4 sequence (P37231 235-505 limits assumed): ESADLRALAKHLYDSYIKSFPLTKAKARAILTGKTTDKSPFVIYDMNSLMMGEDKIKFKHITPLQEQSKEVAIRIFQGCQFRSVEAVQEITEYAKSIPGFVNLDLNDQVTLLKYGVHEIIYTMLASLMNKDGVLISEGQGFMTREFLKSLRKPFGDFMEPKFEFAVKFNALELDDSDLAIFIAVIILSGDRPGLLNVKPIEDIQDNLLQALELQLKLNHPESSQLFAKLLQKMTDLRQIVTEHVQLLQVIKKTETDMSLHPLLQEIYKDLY

[8] = molecular target: T5, PPARδ (Homo sapiens, UniProt Q03181); settings: TR-FRET-based assay
T5 sequence (Q03181 171-441 limits assumed): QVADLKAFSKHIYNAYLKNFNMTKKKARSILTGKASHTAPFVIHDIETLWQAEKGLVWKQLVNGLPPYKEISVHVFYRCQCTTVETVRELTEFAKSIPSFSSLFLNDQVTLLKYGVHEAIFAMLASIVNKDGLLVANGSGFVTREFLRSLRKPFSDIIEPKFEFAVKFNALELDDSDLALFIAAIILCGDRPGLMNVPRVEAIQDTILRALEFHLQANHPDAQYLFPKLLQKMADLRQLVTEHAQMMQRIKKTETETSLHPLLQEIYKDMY

| SMILES | hA3AR % replacement [1] [% at 10 μM] | adiponectin production compared to the IDX vehicle control [2] | interaction between PPARδ-LBD and corepressor peptide SMRT-ID2 [3] | recruitment of coactivator peptide C33 to PPARδ-LBD [4] | other results |
| --- | --- | --- | --- | --- | --- |
| O[C@@H]1[C@H](O)CS[C@H]1Cn1cnc2c(NCc3cccc(Br)c3)ncnc21 [4g, (2S,3R,4S)-2-((6-((3-Bromobenzyl)amino)-9H-purin-9-yl)methyl)-tetrahydrothiophene-3,4-diol] | 6 | – | – | – | – |
| CC#Cc1nc(NCc2cccc(I)c2)c2ncn(C[C@@H]3SC[C@@H](O)[C@H]3O)c2n1 [4l, (2S,3R,4S)-2-((6-((3-Iodobenzyl)amino)-2-(prop-1-yn-1-yl)-9H-purin-9-yl)methyl)tetrahydrothiophene-3,4-diol] | – | significantly promoted adiponectin production | – | – | – |
| O[C@@H]1[C@H](O)CO[C@H]1Cn1cnc2c(NCc3cccc(Br)c3)nc(Cl)nc21 [4o, (2S,3R,4R)-2-((6-((3-Bromobenzyl)amino)-2-chloro-9H-purin-9-yl)methyl)tetrahydrofuran-3,4-diol] | – | significantly promoted adiponectin production | significantly increased the interaction between PPARδ-LBD and the corepressor peptide | no effect on the recruitment of coactivator peptide | – |
| CC#Cc1nc(NCc2cccc(Cl)c2)c2ncn(C[C@@H]3SC[C@@H](O)[C@H]3O)c2n1 [4j, (2S,3R,4S)-2-((6-((3-Chlorobenzyl)amino)-2-(prop-1-yn-1-yl)-9H-purin-9-yl)methyl)tetrahydrothiophene-3,4-diol] | – | – | – | – | coactivator peptide recruitment to PPARγ-LBD [5]: no statistical significance |
| O[C@@H]1[C@H](O)CS[C@H]1Cn1cnc2c(NCc3cccc(I)c3)ncnc21 [4h, (2S,3R,4S)-2-((6-((3-Iodobenzyl)amino)-9H-purin-9-yl)methyl)-tetrahydrothiophene-3,4-diol] | 14 | – | – | – | – |
| O[C@@H]1[C@H](O)CS[C@H]1Cn1cnc2c(NCc3cccc(Cl)c3)ncnc21 [4f, (2S,3R,4S)-2-((6-((3-Chlorobenzyl)amino)-9H-purin-9-yl)methyl)-tetrahydrothiophene-3,4-diol] | 9 | – | – | – | – |
| O[C@@H]1[C@H](O)CO[C@H]1Cn1cnc2c(NCc3cccc(I)c3)nc(Cl)nc21 [4p, (2S,3R,4R)-2-((2-Chloro-6-((3-iodobenzyl)amino)-9H-purin-9-yl)-methyl)tetrahydrofuran-3,4-diol] | – | – | – | – | hA3AR % replacement [6]: 3% at 10 μM |
| O[C@@H]1[C@H](O)CS[C@H]1Cn1cnc2c(NCc3cccc(Cl)c3)nc(Cl)nc21 [4b, (2S,3R,4S)-2-((2-Chloro-6-((3-chlorobenzyl)amino)-9H-purin-9-yl)methyl)tetrahydrothiophene-3,4-diol] | 13 | – | – | – | – |
| CC#Cc1nc(NCc2cccc(Br)c2)c2ncn(C[C@@H]3SC[C@@H](O)[C@H]3O)c2n1 [4k, (2S,3R,4S)-2-((6-((3-Bromobenzyl)amino)-2-(prop-1-yn-1-yl)-9H-purin-9-yl)methyl)tetrahydrothiophene-3,4-diol] | – | significantly promoted adiponectin production | – | – | – |
| O[C@@H]1[C@H](O)CS[C@H]1Cn1cnc2c(NCc3cccc(F)c3)nc(Cl)nc21 [4a, (2S,3R,4S)-2-((2-Chloro-6-((3-fluorobenzyl)amino)-9H-purin-9-yl)methyl)tetrahydrothiophene-3,4-diol] | 17 | significantly promoted adiponectin production | significantly increased the interaction between PPARδ-LBD and the corepressor peptide | no effect on the recruitment of coactivator peptide | PPARγ-binding activity (in words) [7]: significant dual receptor-binding activity; PPARδ-binding activity (in words) [8]: significant dual receptor-binding activity |
| O[C@@H]1[C@H](O)CS[C@H]1Cn1cnc2c(NCc3cccc(F)c3)ncnc21 [4e, (2S,3R,4S)-2-((6-((3-Fluorobenzyl)amino)-9H-purin-9-yl)methyl)-tetrahydrothiophene-3,4-diol] | 9 | – | – | – | – |
| O[C@@H]1[C@H](O)CS[C@H]1Cn1cnc2c(NCc3cccc(Br)c3)nc(Cl)nc21 [4c, (2S,3R,4S)-2-((6-((3-Bromobenzyl)amino)-2-chloro-9H-purin-9-yl)methyl)tetrahydrothiophene-3,4-diol] | 21 | significantly promoted adiponectin production | significantly increased the interaction between PPARδ-LBD and the corepressor peptide | no effect on the recruitment of coactivator peptide | PPARγ-binding activity (in words) [7]: significant dual receptor-binding activity; PPARδ-binding activity (in words) [8]: significant dual receptor-binding activity |
| CC#Cc1nc(NCc2cccc(F)c2)c2ncn(C[C@@H]3SC[C@@H](O)[C@H]3O)c2n1 [4i, (2S,3R,4S)-2-((6-((3-Fluorobenzyl)amino)-2-(prop-1-yn-1-yl)-9H-purin-9-yl)methyl)tetrahydrothiophene-3,4-diol] | – | significantly promoted adiponectin production | – | – | – |
| O[C@@H]1[C@H](O)CS[C@H]1Cn1cnc2c(NCc3cccc(I)c3)nc(Cl)nc21 [4d, (2S,3R,4S)-2-((2-Chloro-6-((3-iodobenzyl)amino)-9H-purin-9-yl)-methyl)tetrahydrothiophene-3,4-diol] | 10 | – | significantly increased the interaction between PPARδ-LBD and the corepressor peptide | no effect on the recruitment of coactivator peptide | PPARδ corepressor recruitment in presence of PPARδ agonist 27 ([3]; 27 (1 μM), 4d (10 μM), 28 (1 μM)): significantly inhibited by 27; PPARδ-binding activity (in words) [8]: significant dual receptor-binding activity |
| O[C@@H]1[C@H](O)CO[C@H]1Cn1cnc2c(NCc3cccc(Cl)c3)nc(Cl)nc21 [4n, (2S,3R,4R)-2-((2-Chloro-6-((3-chlorobenzyl)amino)-9H-purin-9-yl)methyl)tetrahydrofuran-3,4-diol] | – | significantly promoted adiponectin production | significantly increased the interaction between PPARδ-LBD and the corepressor peptide | no effect on the recruitment of coactivator peptide | – |
